In brackets after ≈: the same amount, converted by molar mass. A value given as a limit tells only on which side of the number the result lay.

The test system of series [1] is Staphylococcus aureus. Briefly: Antibacterial activity against Staphylococcus aureus ATCC 29213 assessed as bacterial growth inhibition by serial dilution method. The class given is functional.
Series [2] relates to Staphylococcus aureus. The series can be described thus: Antibacterial activity against Staphylococcus aureus assessed as bacterial growth inhibition by serial dilution method. Format: functional.
Series [3] deals with Pseudomonas aeruginosa. The series can be described thus: Antibacterial activity against Pseudomonas aeruginosa ATCC 27853 assessed as bacterial growth inhibition by serial dilution method. The class given is functional.
Series [4] concerns Staphylococcus aureus. The series can be described thus: Antibacterial activity against Staphylococcus aureus ATCC 25923 assessed as bacterial growth inhibition by serial dilution method. Format: functional.
The subject of a further series is Acinetobacter baumannii. The series can be described thus: Antibacterial activity against Acinetobacter baumannii assessed as bacterial growth inhibition by serial dilution method. The class given is functional.
The test system of series [5] is Staphylococcus aureus. The series can be described thus: Antibacterial activity against methicillin-resistant Staphylococcus aureus N315 assessed as bacterial growth inhibition by serial dilution method. The class given is functional.
Series [6] has as its system Escherichia coli. The series can be described thus: Antibacterial activity against Escherichia coli assessed as bacterial growth inhibition by serial dilution method. Format: functional.
Another series deals with Enterococcus faecalis. The series can be described thus: Antibacterial activity against Enterococcus faecalis assessed as bacterial growth inhibition by serial dilution method. The class given is functional.
Another series has as its system Klebsiella pneumoniae. Briefly: Antibacterial activity against Klebsiella pneumoniae assessed as bacterial growth inhibition by serial dilution method. The class given is functional.
Series [7] concerns Pseudomonas aeruginosa. The series can be described thus: Antibacterial activity against Pseudomonas aeruginosa assessed as bacterial growth inhibition by serial dilution method. The class given is functional.
Series [8] has as its system Escherichia coli. The series can be described thus: Antibacterial activity against Escherichia coli ATCC 25922 assessed as bacterial growth inhibition by serial dilution method. The class given is functional.
For a further series, the system named is Aspergillus fumigatus. Briefly: Antifungal activity against Aspergillus fumigatus assessed as inhibition of fungal growth. Format: functional.
Series [9] is described as follows: Cytotoxicity against human HaCaT cells assessed as cell viability at 12.5 ug/ml by CCK-8 assay relative to control. Format: toxicity, cell-based. The settings on record: at 12.5 µg/mL, read-out: Activity. Background: Formazan colour is commonly taken as a measure of viable cells.
The nature of series [10]: Cytotoxicity against human HaCaT cells assessed as cell viability at 50 ug/ml by CCK-8 assay relative to control. Format: toxicity, cell-based. Conditions: at 50 µg/mL, read-out: Activity.

A word on the MIC: it is the smallest concentration in the dilution series that meets the test's criterion for growth inhibition. Regarding `CCn1cc(C(=O)O)c(=O)c2cc(F)c(N3CCN(c4nccc(C)n4)CC3)cc21`, the MIC in the series with Staphylococcus aureus [1] was found to be 16 µg/mL (≈ 38.9 µM); in the series with Staphylococcus aureus [2] it was 4 µg/mL (≈ 9.72 µM); in the series with Pseudomonas aeruginosa [3] it was 16 µg/mL (≈ 38.9 µM); in the series with Staphylococcus aureus [4], 4 µg/mL (≈ 9.72 µM); in the series on Acinetobacter baumannii, 256 µg/mL (≈ 622 µM); in the series with Staphylococcus aureus [5], 32 µg/mL (≈ 77.8 µM). Further, the minimal inhibitory concentration (MIC) came out at 64 µg/mL (≈ 156 µM) in the series with Escherichia coli [6]; 1 µg/mL (≈ 2.43 µM) with Enterococcus faecalis; 4 µg/mL (≈ 9.72 µM) in the series with Klebsiella pneumoniae; 128 µg/mL (≈ 311 µM) in the series on Pseudomonas aeruginosa [7]; 1 µg/mL (≈ 2.43 µM) in the series on Escherichia coli [8].
As for `O=C(O)c1cn(C2CC2)c2cc(N3CCN(c4nccc(C(F)(F)F)n4)CC3)c(F)cc2c1=O`, the MIC in the series with Staphylococcus aureus [1] is 64 µg/mL (≈ 134 µM); in the series with Staphylococcus aureus [2] it was 128 µg/mL (≈ 268 µM); with Pseudomonas aeruginosa [3] it was 128 µg/mL (≈ 268 µM); with Staphylococcus aureus [4] it was 128 µg/mL (≈ 268 µM); in the series with Acinetobacter baumannii, greater than 256 µg/mL; with Staphylococcus aureus [5], 64 µg/mL (≈ 134 µM). Also, the minimal inhibitory concentration (MIC) was determined as 128 µg/mL (≈ 268 µM) in the series on Escherichia coli [6]; 8 µg/mL (≈ 16.8 µM) in the series with Enterococcus faecalis; 128 µg/mL (≈ 268 µM) with Klebsiella pneumoniae; 64 µg/mL (≈ 134 µM) in the series with Pseudomonas aeruginosa [7]; 32 µg/mL (≈ 67 µM) in the series with Escherichia coli [8].
Regarding `O=C(O)c1cn(C2CC2)c2cc(N3CCN(c4ncc(Br)cn4)CC3)c(F)cc2c1=O`, the minimum inhibitory concentration (MIC) is 8 µg/mL (≈ 16.4 µM) in the series with Staphylococcus aureus [1]; 16 µg/mL (≈ 32.8 µM) in the series with Staphylococcus aureus [2]; 32 µg/mL (≈ 65.5 µM) in the series with Pseudomonas aeruginosa [3]; 16 µg/mL (≈ 32.8 µM) with Staphylococcus aureus [4]; 32 µg/mL (≈ 65.5 µM) in the series with Acinetobacter baumannii; 128 µg/mL (≈ 262 µM) in the series on Staphylococcus aureus [5]. The MIC in the series with Escherichia coli [6] is 64 µg/mL (≈ 131 µM); in the series on Enterococcus faecalis, 128 µg/mL (≈ 262 µM); in the series on Klebsiella pneumoniae, 128 µg/mL (≈ 262 µM); in the series on Pseudomonas aeruginosa [7], 16 µg/mL (≈ 32.8 µM); with Escherichia coli [8], 128 µg/mL (≈ 262 µM).
For `CCn1cc(C(=O)O)c(=O)c2cc(F)c(N3CCN(c4ncccn4)CC3)cc21`, the minimal inhibitory concentration (MIC) is 32 µg/mL (≈ 80.5 µM) in the series on Staphylococcus aureus [1]; 2 µg/mL (≈ 5.03 µM) in the series on Aspergillus fumigatus; 64 µg/mL (≈ 161 µM) in the series on Staphylococcus aureus [2]; 128 µg/mL (≈ 322 µM) with Pseudomonas aeruginosa [3]; 8 µg/mL (≈ 20.1 µM) in the series with Staphylococcus aureus [4]; 64 µg/mL (≈ 161 µM) with Acinetobacter baumannii. Further, the MIC in the series on Staphylococcus aureus [5] was found to be 2 µg/mL (≈ 5.03 µM); in the series with Escherichia coli [6], 16 µg/mL (≈ 40.3 µM); with Enterococcus faecalis, 8 µg/mL (≈ 20.1 µM); in the series with Klebsiella pneumoniae it was 4 µg/mL (≈ 10.1 µM); in the series on Pseudomonas aeruginosa [7], 16 µg/mL (≈ 40.3 µM); in the series on Escherichia coli [8], 64 µg/mL (≈ 161 µM).
Turning to `Cc1cnc(N2CCN(c3cc4c(cc3F)c(=O)c(C(=O)O)cn4C3CC3)CC2)nc1`, the minimal inhibitory concentration (MIC) in the series with Staphylococcus aureus [1] turned out to be 64 µg/mL (≈ 151 µM); in the series with Staphylococcus aureus [2], 128 µg/mL (≈ 302 µM); in the series on Pseudomonas aeruginosa [3] it was 256 µg/mL (≈ 605 µM); in the series with Staphylococcus aureus [4] it was 2 µg/mL (≈ 4.72 µM); in the series with Acinetobacter baumannii, 128 µg/mL (≈ 302 µM); with Staphylococcus aureus [5], 256 µg/mL (≈ 605 µM). Also, the MIC in the series on Escherichia coli [6] was 64 µg/mL (≈ 151 µM); with Enterococcus faecalis, 4 µg/mL (≈ 9.45 µM); in the series on Klebsiella pneumoniae, greater than 256 µg/mL; with Pseudomonas aeruginosa [7] it was 2 µg/mL (≈ 4.72 µM); with Escherichia coli [8], 8 µg/mL (≈ 18.9 µM).
Consider `CCc1cnc(N2CCN(c3cc4c(cc3F)c(=O)c(C(=O)O)cn4CC)CC2)nc1`, for which the MIC in the series on Staphylococcus aureus [1] stood at 64 µg/mL (≈ 150 µM); in the series with Staphylococcus aureus [2] it was 8 µg/mL (≈ 18.8 µM); in the series on Pseudomonas aeruginosa [3], 128 µg/mL (≈ 301 µM); with Staphylococcus aureus [4], 2 µg/mL (≈ 4.7 µM); in the series on Acinetobacter baumannii, 128 µg/mL (≈ 301 µM); in the series with Staphylococcus aureus [5], 2 µg/mL (≈ 4.7 µM). For the same compound, the MIC in the series with Escherichia coli [6] was 16 µg/mL (≈ 37.6 µM); in the series with Enterococcus faecalis it was 2 µg/mL (≈ 4.7 µM); with Klebsiella pneumoniae it was 2 µg/mL (≈ 4.7 µM); in the series on Pseudomonas aeruginosa [7] it was 2 µg/mL (≈ 4.7 µM); in the series on Escherichia coli [8], 1 µg/mL (≈ 2.35 µM).
As for `O=C(O)c1cn(C2CC2)c2cc(N3CCN(c4ncccn4)CC3)c(F)cc2c1=O`, the minimum inhibitory concentration (MIC) was 32 µg/mL (≈ 78.2 µM) with Staphylococcus aureus [1]; 1 µg/mL (≈ 2.44 µM) in the series on Aspergillus fumigatus; 4 µg/mL (≈ 9.77 µM) in the series on Staphylococcus aureus [2]; 32 µg/mL (≈ 78.2 µM) in the series with Pseudomonas aeruginosa [3]; 64 µg/mL (≈ 156 µM) with Staphylococcus aureus [4]; greater than 256 µg/mL in the series on Acinetobacter baumannii. Moreover, the MIC in the series on Staphylococcus aureus [5] is 16 µg/mL (≈ 39.1 µM); in the series with Escherichia coli [6], 8 µg/mL (≈ 19.5 µM); in the series with Enterococcus faecalis, 2 µg/mL (≈ 4.88 µM); in the series on Klebsiella pneumoniae, 64 µg/mL (≈ 156 µM); with Pseudomonas aeruginosa [7] it was 8 µg/mL (≈ 19.5 µM); with Escherichia coli [8], 1 µg/mL (≈ 2.44 µM). Besides, the viability at 12.5 ug/ml in [9] was greater than 90%. For the same compound, the viability at 50 ug/ml in series [10] is 70%.
Regarding `CCn1cc(C(=O)O)c(=O)c2cc(F)c(N3CCN(c4nccc(C(F)(F)F)n4)CC3)cc21`, the minimum inhibitory concentration (MIC) is 128 µg/mL (≈ 275 µM) in the series with Staphylococcus aureus [1]; greater than 256 µg/mL in the series with Staphylococcus aureus [2]; greater than 256 µg/mL with Pseudomonas aeruginosa [3]; 256 µg/mL (≈ 550 µM) in the series with Staphylococcus aureus [4]; 128 µg/mL (≈ 275 µM) in the series on Acinetobacter baumannii; greater than 256 µg/mL in the series on Staphylococcus aureus [5]. Moreover, the minimum inhibitory concentration (MIC) in the series on Escherichia coli [6] was greater than 256 µg/mL; in the series with Enterococcus faecalis it was 64 µg/mL (≈ 138 µM); with Klebsiella pneumoniae, 128 µg/mL (≈ 275 µM); with Pseudomonas aeruginosa [7], 128 µg/mL (≈ 275 µM); in the series on Escherichia coli [8], 256 µg/mL (≈ 550 µM).
On to `OC(Cn1cncn1)(Cn1cncn1)c1ccc(F)cc1F` [FLUCONAZOLE], for which the MIC with Aspergillus fumigatus was 256 µg/mL (≈ 836 µM).

Values taken from ChEMBL document CHEMBL5104131, “Pyrimidine-conjugated fluoroquinolones as new potential broad-spectrum antibacterial agents” (Bioorg Med Chem Lett, 2022).
